This note sets out measurements from patent US11541050B2, “Pyrimidine derivatives for the treatment of viral infections” (JANSSEN SCIENCES IRELAND UC, priority 2011, dated 2023).

Holding throughout (assay type): cell-based
What all share (parameters): unit not given here

The subject of assay [1] is human TLR7 mutant sequence comprising a deletion in the second leucine-rich repeat. Briefly: TLR7 cellular NFκB-luc reporter assay, mutant TLR7 with deletion in the second leucine-rich repeat. As to conditions: lowest effective concentration. As for the experimental part:
(§1) The ability of compounds to activate human TLR7 and/or TLR8 was assessed in a cellular reporter assay using HEK293 cells transiently transfected with a TLR7 or TLR8 expression vector and NFκB-luc reporter construct. In one instance the TLR expression construct expresses the respective wild type sequence or a mutant sequence comprising a deletion in the second leucine-rich repeat of the TLR.
(§2) Briefly, HEK293 cells were grown in culture medium (DMEM supplemented with 10% FCS and 2 mM Glutamine). For transfection of cells in 10 cm dishes, cells were detached with Trypsin-EDTA, transfected with a mix of CMV-TLR7 or TLR8 plasmid (750 ng), NFκB-luc plasmid (375 ng) and a transfection reagent and incubated for 48 hours at 37° C. in a humidified 5% CO2 atmosphere. […] Thirty microliters of cells were then dispensed into each well in 384-well plates, where 10 μL of compound in 4% DMSO was already present. Following 6 hours incubation at 37° C., 5% CO2, the luciferase activity was determined by adding 15 μl of Steady Lite Plus substrate (Perkin Elmer) to each well and readout performed on a ViewLux ultraHTS microplate imager (Perkin Elmer). Dose response curves were generated from measurements performed in quadruplicates.

In assay [2] the target is T1, human TLR7 (wild type sequence) (Homo sapiens, UniProt Q9NYK1).
T1 construct: expressed in transfected cells; host or cells: HEK293
T1 sequence (Q9NYK1 27-1049): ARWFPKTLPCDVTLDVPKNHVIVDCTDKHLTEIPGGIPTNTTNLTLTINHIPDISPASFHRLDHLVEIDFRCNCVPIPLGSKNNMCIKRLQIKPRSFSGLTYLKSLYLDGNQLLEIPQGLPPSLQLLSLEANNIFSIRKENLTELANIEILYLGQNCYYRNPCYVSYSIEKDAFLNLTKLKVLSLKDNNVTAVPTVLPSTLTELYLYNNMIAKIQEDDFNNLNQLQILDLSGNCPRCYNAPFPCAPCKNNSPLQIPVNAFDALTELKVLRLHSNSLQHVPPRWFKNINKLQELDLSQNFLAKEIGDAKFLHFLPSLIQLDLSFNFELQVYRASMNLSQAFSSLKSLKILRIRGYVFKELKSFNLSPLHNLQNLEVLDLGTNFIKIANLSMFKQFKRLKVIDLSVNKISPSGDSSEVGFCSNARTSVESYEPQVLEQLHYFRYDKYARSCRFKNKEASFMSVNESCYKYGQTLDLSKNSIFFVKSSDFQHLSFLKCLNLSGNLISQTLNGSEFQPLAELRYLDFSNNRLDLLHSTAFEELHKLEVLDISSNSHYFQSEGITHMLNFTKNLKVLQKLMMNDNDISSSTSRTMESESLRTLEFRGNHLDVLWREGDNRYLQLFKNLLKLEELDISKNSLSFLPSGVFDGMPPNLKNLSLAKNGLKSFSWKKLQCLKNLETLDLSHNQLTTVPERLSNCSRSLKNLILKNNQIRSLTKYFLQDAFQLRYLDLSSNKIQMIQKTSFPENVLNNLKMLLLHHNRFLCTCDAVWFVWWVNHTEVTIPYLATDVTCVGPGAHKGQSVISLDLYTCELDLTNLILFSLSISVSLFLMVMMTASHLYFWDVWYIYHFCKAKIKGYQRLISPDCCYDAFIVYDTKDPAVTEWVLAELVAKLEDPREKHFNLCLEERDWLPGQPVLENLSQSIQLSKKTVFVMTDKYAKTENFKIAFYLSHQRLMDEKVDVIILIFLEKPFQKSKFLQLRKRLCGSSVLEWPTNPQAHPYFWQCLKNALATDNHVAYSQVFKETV
Briefly: TLR7 cellular NFκB-luc reporter assay, wild type TLR7. The note with it: lowest effective concentration, wild type TLR7. A digest of the protocol: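 Transfected HEK293 cells expressing wild type or second leucine-rich repeat-deleted TLR7 or TLR8 together with an NFκB-luciferase reporter are treated with compound for 6 hours. Activation is measured by luciferase, and LEC is the lowest concentration exceeding the assay standard deviation at least two fold.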
Background: Reporter assays use an easily measured gene product as a stand-in for the process of interest.

Assay [3] concerns human TLR8 mutant sequence comprising a deletion in the second leucine-rich repeat. As to the kind of experiment: TLR8 cellular NFκB-luc reporter assay, mutant TLR8 with deletion in the second leucine-rich repeat. The note with it: lowest effective concentration. Here is the method:
as §1, §2

Some results are limits rather than exact numbers.

`CCC[C@@H](CO)Nc1nc(N)ncc1OCc1cn2ccccc2n1` [Compound 215] registered a TLR7-dIRR2_LEC in assay [1] of 0.300. The compound also yielded a TLR7-wt_LEC in assay [2] of 0.171. This compound also returned a TLR8-dIRR2_LEC in assay [3] of 0.029.
`CCCC[C@@H](CO)Nc1nc(N)ncc1OCc1nccc2ccccc12` [Compound 216] displayed a TLR7-dIRR2_LEC in assay [1] of 0.111. The compound also gave a TLR7-wt_LEC in assay [2] of 0.008. The compound also yielded a TLR8-dIRR2_LEC in assay [3] of 0.002.
`CCCC[C@@H](CO)Nc1nc(N)ncc1OCc1nccc(OC)c1OC` [Compound 217] had a TLR7-dIRR2_LEC in assay [1] of 0.433. In assay [2], this compound registered a TLR7-wt_LEC of 0.106. In assay [3], this compound had a TLR8-dIRR2_LEC of 0.007.
Turning to `CCCC[C@@H](CO)Nc1nc(N)ncc1OCc1cn2ccccc2n1` [Compound 218], the TLR7-dIRR2_LEC in assay [1] came to 0.352. Also, in assay [2], the TLR7-wt_LEC is listed as 0.154. Moreover, in assay [3], the TLR8-dIRR2_LEC stood at 0.032.
For `CCC[C@@H](C)Nc1nc(N)ncc1OCc1nccc2ccccc12` [Compound 219] the same measures were 1.640, 0.125 and 0.029.
For `CCCCNc1nc(N)ncc1OCCCC(=O)OC` [Compound 220], in that order: 1.450, 1.940 and 1.720.
With `CCCCNc1nc(N)ncc1OCCCC(=O)OC(C)C` [Compound 221], the TLR7-dIRR2_LEC in assay [1] is reported as 0.859. This compound yielded a TLR7-wt_LEC in assay [2] of 0.654. Also, the TLR8-dIRR2_LEC in assay [3] is 0.496.
For `CCCC[C@@H](CCO)Nc1nc(N)ncc1OCc1cc2ccccc2cn1` [Compound 223] the same measures were 1.400, 0.100 and 0.033.
Compound `CCCC[C@@H](CCO)Nc1nc(N)ncc1OCCCc1ccc(OC)cc1` [Compound 225] returned a TLR7-dIRR2_LEC in assay [1] of 2.180. In assay [2], this compound returned a TLR7-wt_LEC of 0.385. In addition, the TLR8-dIRR2_LEC in assay [3] is on record as 0.129.
For `CCC[C@@H](CCO)Nc1nc(N)ncc1OCCCc1ccc(OC)cc1` [Compound 226], the TLR7-dIRR2_LEC in assay [1] amounted to 1.050. The compound further returned a TLR7-wt_LEC in assay [2] of 0.274. Also, the TLR8-dIRR2_LEC in assay [3] amounted to 0.036.
In the case of `CCC[C@@H](CCO)Nc1nc(N)ncc1OCc1cccc(C)n1` [Compound 227], the TLR7-dIRR2_LEC in assay [1] is reported as 0.717. Also, the TLR7-wt_LEC in assay [2] is 0.170. The same compound displayed a TLR8-dIRR2_LEC in assay [3] of 0.030.
`CCCC[C@@H](CO)Nc1nc(N)ncc1OCCCc1ccc2c(c1)OCO2` [Compound 228] gave a TLR7-dIRR2_LEC in assay [1] of 1.510. The compound also returned a TLR7-wt_LEC in assay [2] of 1.410. For the same compound, the TLR8-dIRR2_LEC in assay [3] was 0.112.
`CCCCNc1nc(N)ncc1OCCN(Cc1ccccc1)C(=O)OCC` [Compound 230] showed a TLR7-dIRR2_LEC in assay [1] of 3.470. The compound also showed a TLR7-wt_LEC in assay [2] of 0.593. For the same compound, the TLR8-dIRR2_LEC in assay [3] was determined as 0.138.
In assay [1], `CCC[C@@H](CCO)Nc1nc(N)ncc1OCc1nccc2ccccc12` [Compound 231] registered a TLR7-dIRR2_LEC of 0.052. The TLR7-wt_LEC in assay [2] is 0.001. Also, in assay [3], the TLR8-dIRR2_LEC is less than 0.001.
For the compound `CCCCNc1nc(N)ncc1OCCNC(=O)OCC` [Compound 232], the TLR7-dIRR2_LEC in assay [1] is 1.680. Also, the TLR7-wt_LEC in assay [2] is 0.967. The compound also had a TLR8-dIRR2_LEC in assay [3] of 0.110.
`CCCCNc1nc(N)ncc1OCCOC(C)C` [Compound 234] displayed a TLR7-dIRR2_LEC in assay [1] of 1.170. For the same compound, in assay [2], the TLR7-wt_LEC was 1.850. In addition, the TLR8-dIRR2_LEC in assay [3] is recorded as 0.464.
For `CCCCNc1nc(N)ncc1OCC1CCOC1` (stereo not drawn) [Compound 235], in that order: 10.410, more than 25 and 1.890.
The compound `CCCCNc1nc(N)ncc1OCc1ccc2cccnc2n1` [Compound 236] had a TLR7-dIRR2_LEC in assay [1] of 0.333. This compound also displayed a TLR7-wt_LEC in assay [2] of 0.241. In addition, the TLR8-dIRR2_LEC in assay [3] came to 0.031.
For `CCCC[C@@H](CCO)Nc1nc(N)ncc1OCc1cc(C)n(C)n1` [Compound 237] the same measures were 1.830, 0.156 and 0.051.
Turning to `CCC[C@@H](CCO)Nc1nc(N)ncc1OCCCc1ccc2c(c1)OCO2` [Compound 238], the TLR7-dIRR2_LEC in assay [1] turned out to be 1.920. For the same compound, the TLR7-wt_LEC in assay [2] turned out to be 0.234. For the same compound, the TLR8-dIRR2_LEC in assay [3] stood at 0.091.
Turning to `CCC[C@@H](CO)Nc1nc(N)ncc1OCc1ccccn1` [Compound 239], the TLR7-dIRR2_LEC in assay [1] came to 0.247. The same compound registered a TLR7-wt_LEC in assay [2] of 0.464. Moreover, the TLR8-dIRR2_LEC in assay [3] amounted to 0.145.
For `CCCC[C@@H](CCO)Nc1nc(N)ncc1OCc1nn(C)c2ccccc12` [Compound 240], in that order: 0.442, 0.008 and 0.005.
In assay [1], `CCCC[C@@H](CCO)Nc1nc(N)ncc1OCc1ncccc1OC` [Compound 241] displayed a TLR7-dIRR2_LEC of 0.304. This compound also displayed a TLR7-wt_LEC in assay [2] of 0.008. In addition, in assay [3], the TLR8-dIRR2_LEC is listed as 0.004.
Take `CCCC[C@@H](CCO)Nc1nc(N)ncc1OCc1ncc(C)c(O)c1C` [Compound 242]: the TLR7-dIRR2_LEC in assay [1] was 3.010. In addition, the TLR7-wt_LEC in assay [2] was 5.400. Also, in assay [3], the TLR8-dIRR2_LEC was 0.006.
In assay [1], `CCCC[C@@H](CO)Nc1nc(N)ncc1OCc1ccccn1` [Compound 243] gave a TLR7-dIRR2_LEC of 0.103. Further, in assay [2], the TLR7-wt_LEC was 0.343. Moreover, the TLR8-dIRR2_LEC in assay [3] came out at 0.190.
For `CCCC[C@@H](CCO)Nc1nc(N)ncc1OCCCc1ccc2c(c1)OCO2` [Compound 244], in that order: 1.400, 0.202 and 0.104.
`CCCC[C@@H](CCO)Nc1nc(N)ncc1OCc1nccc(OC)c1OC` [Compound 245] returned a TLR7-dIRR2_LEC in assay [1] of 0.507. Further, the TLR7-wt_LEC in assay [2] is 0.040. The same compound registered a TLR8-dIRR2_LEC in assay [3] of 0.011.
In assay [1], `CCC[C@@H](CCO)Nc1nc(N)ncc1OCc1cc(C)n(C)n1` [Compound 246] registered a TLR7-dIRR2_LEC of 1.150. This compound showed a TLR7-wt_LEC in assay [2] of 0.157. In assay [3], this compound had a TLR8-dIRR2_LEC of 0.048.
For `CCCC[C@@H](CCO)Nc1nc(N)ncc1OCc1cncn1[C@@H](C)c1ccccc1` [Compound 247] the same measures were 8.240, 12.390 and 3.200.
`C#CCOc1cnc(N)nc1NCCCC` [Compound 248] gave a TLR7-dIRR2_LEC in assay [1] of 0.654. In assay [2], the TLR7-wt_LEC turned out to be 2.120. In assay [3], the TLR8-dIRR2_LEC is 0.529.
For `CCC[C@@H](CCO)Nc1nc(N)ncc1OCc1cc2ccccc2cn1` [Compound 249], in that order: 0.172, 0.039 and 0.036.
`CCCC[C@@H](CCOC(=O)C(C)C)Nc1nc(N)ncc1OC` [Compound 250] showed a TLR7-dIRR2_LEC in assay [1] of 3.250. Further, in assay [2], the TLR7-wt_LEC stood at 0.724. The compound also had a TLR8-dIRR2_LEC in assay [3] of 0.580.
For `CCC[C@H](C)Nc1nc(N)ncc1OCc1cn2ccccc2n1` [Compound 251], in that order: 0.556, 0.164 and 0.087.
For `CCC[C@@H](C)Nc1nc(N)ncc1OCc1nccc(OC)c1OC` [Compound 252], in that order: more than 25, 4.020 and 1.310.
